Molecular target: T1, CCR2 (Homo sapiens, UniProt P41597)
T1 construct: expressed in transfected cells; geneticin and hygromycin selection
Test: Calcium activity assay on FLIPR Tetra in HEK-Gqi5 cells stably expressing CCR2
Format: cell-based
Settings: for Emax: read-out: CCR2 ANTAGONISM Rel. Eff. (%)
Protocol: HEK-Gqi5 cells stably expressing CCR2 were cultured in DMEM high glucose, 10% FBS, 1% PSA, 400 μg/ml geneticin and 50 μg/ml hygromycin. Appropriate positive control chemokines (MCP-1, MIP1A or RANTES) was used as the positive control agonist for screening compound-induced calcium activity assayed on the FLIPR^Tetra. The drug plates were prepared in 384-well microplates using the EP3 and the MultiPROBE robotic liquid handling systems. Compounds were synthesized and tested for CCR2 activity.

T1 sequence (P41597 whole entry, species assumed): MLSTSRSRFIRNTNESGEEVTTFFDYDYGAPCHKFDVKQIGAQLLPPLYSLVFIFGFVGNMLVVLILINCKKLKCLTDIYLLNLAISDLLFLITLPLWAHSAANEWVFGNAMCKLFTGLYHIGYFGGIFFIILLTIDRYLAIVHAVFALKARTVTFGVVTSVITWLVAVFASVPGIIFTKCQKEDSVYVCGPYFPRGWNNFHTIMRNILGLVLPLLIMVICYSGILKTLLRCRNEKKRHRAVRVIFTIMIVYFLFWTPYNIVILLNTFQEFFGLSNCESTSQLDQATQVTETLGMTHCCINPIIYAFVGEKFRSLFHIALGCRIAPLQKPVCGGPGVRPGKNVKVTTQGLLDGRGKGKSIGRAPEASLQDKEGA

| IC50 [nM] | Emax [%] | Compound |
| --- | --- | --- |
| 198 | 86 | COC(=O)c1ccccc1CSc1ccc(Cl)cc1NS(=O)(=O)c1cc2ccccc2s1 [Compound 1] |
| 4 | 100 | O=C(O)c1ccccc1CSc1ccc(Cl)cc1NS(=O)(=O)c1cc2ccccc2s1 [Compound 2, 2-[({2-[(1-Benzothiophen-2-ylsulfonyl)amino]-4-chlorophenyl}sulfanyl)methyl]benzoic acid] |
|  | 99 | Cc1ccc(SCc2ccccc2C(=O)O)c(NS(=O)(=O)c2cc3ccccc3s2)c1 [Compound 4, 2-[({2-[(1-Benzothiophen-2-ylsulfonyl)amino]-4-methylphenyl}sulfanyl)methyl]benzoic acid] |
| 77 | 98 | Nc1cccc(CS(=O)(=O)c2ccc(Cl)cc2NS(=O)(=O)c2cc3ccccc3s2)c1 [Compound 7, N-{2-[(3-Aminobenzyl)sulfonyl]-5-chlorophenyl}-1-benzothiophene-2-sulfonamide] |
| 114 | 88 | Cc1ccc(NS(=O)(=O)c2cc3ccccc3s2)c(SCc2ccccc2C(=O)O)c1 [Compound 9, 2-[({2-[(1-Benzothiophen-2-ylsulfonyl)amino]-5-methylphenyl}sulfanyl)methyl]benzoic acid] |
| 2250 | 44 | O=S(=O)(Nc1cccnc1SCc1ccccc1)c1cc2ccccc2s1 [Compound 10, N-[2-(Benzylsulfanyl)pyridin-3-yl]-1-benzothiophene-2-sulfonamide] |
| 85 | 93 | O=S(=O)(Cc1ccccc1)c1ncccc1NS(=O)(=O)c1cc2ccccc2s1 [Compound 11, N-[2-(Benzylsulfonyl)pyridin-3-yl]-1-benzothiophene-2-sulfonamide] |
| 122 | 72 | O=S(=O)(Nc1cccnc1[S+]([O-])Cc1ccccc1)c1cc2ccccc2s1 (stereo not shown) [Compound 12, N-[2-(Benzylsulfinyl)pyridin-3-yl]-1-benzothiophene-2-sulfonamide] |
| 268 | 68 | COC(=O)c1ccccc1CSc1ccc(F)cc1NS(=O)(=O)c1cc2ccccc2s1 [Compound 13, methyl 2-[({2-[(1-benzothiophen-2-ylsulfonyl)amino]-4-fluorophenyl}sulfanyl)methyl]benzoate] |
| < 10 | 96 | O=C(O)c1ccccc1CSc1ccc(F)cc1NS(=O)(=O)c1cc2ccccc2s1 [Compound 14, 2-[({2-[(1-benzothiophen-2-ylsulfonyl)amino]-4-fluorophenyl}sulfanyl)methyl]benzoic acid] |

From US20150152080A1, “BENZOTHIOPHENE SULFONAMIDES DERIVATIVES AS CHEMOKINE RECEPTOR MODULATORS” (Allergan, Inc., priority 2013, published 2015)
